{"source": "the kinase profiling compilation of Christmann-Franck et al. (2016)", "test_in_all_cases": "KINOMEscan competition binding", "details_in_all_cases": "compound 0.5 µM", "key": {"MAP4K3 (human)": {"biological_target": "MAP4K3 (human) (UniProt Q8IVH8)"}, "FLT4 (human)": {"biological_target": "FLT4 (human) (UniProt P35916)"}, "[1]": {"tested_on": "RET (human), P07949 [V804M]", "sequence (P07949 whole entry V804M, looked up)": "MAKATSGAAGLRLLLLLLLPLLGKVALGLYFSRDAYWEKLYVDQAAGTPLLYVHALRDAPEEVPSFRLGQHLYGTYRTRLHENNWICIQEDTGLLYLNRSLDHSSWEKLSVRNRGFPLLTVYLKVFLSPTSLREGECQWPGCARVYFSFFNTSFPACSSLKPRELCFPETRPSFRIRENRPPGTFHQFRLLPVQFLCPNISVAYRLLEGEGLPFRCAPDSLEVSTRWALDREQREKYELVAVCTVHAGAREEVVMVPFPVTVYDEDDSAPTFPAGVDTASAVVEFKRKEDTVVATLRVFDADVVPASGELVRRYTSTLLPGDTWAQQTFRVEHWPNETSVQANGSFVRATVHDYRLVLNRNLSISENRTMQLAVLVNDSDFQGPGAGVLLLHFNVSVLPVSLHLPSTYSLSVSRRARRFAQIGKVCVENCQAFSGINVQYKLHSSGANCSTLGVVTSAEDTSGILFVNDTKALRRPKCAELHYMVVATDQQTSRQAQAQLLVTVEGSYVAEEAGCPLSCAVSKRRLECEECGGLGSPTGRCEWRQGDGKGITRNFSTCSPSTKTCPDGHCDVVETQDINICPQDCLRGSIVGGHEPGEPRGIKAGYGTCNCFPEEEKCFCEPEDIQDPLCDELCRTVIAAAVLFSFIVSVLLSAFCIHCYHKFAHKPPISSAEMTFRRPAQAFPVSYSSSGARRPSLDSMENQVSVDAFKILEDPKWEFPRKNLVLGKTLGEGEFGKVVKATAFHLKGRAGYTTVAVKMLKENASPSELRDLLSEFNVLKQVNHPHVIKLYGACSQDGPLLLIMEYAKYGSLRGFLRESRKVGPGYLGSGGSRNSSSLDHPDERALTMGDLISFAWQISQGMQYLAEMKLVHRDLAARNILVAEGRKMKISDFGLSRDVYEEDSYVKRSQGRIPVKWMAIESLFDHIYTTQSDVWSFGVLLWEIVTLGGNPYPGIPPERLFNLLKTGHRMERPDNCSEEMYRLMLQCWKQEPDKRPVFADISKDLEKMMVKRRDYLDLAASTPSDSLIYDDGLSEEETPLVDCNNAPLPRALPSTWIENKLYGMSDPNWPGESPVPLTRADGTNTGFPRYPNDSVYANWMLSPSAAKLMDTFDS"}, "EPHA1 (human)": {"biological_target": "EPHA1 (human) (UniProt P21709)"}, "MST4 (human)": {"biological_target": "MST4 (human) (UniProt Q9P289)", "sequence (Q9P289 whole entry, looked up)": "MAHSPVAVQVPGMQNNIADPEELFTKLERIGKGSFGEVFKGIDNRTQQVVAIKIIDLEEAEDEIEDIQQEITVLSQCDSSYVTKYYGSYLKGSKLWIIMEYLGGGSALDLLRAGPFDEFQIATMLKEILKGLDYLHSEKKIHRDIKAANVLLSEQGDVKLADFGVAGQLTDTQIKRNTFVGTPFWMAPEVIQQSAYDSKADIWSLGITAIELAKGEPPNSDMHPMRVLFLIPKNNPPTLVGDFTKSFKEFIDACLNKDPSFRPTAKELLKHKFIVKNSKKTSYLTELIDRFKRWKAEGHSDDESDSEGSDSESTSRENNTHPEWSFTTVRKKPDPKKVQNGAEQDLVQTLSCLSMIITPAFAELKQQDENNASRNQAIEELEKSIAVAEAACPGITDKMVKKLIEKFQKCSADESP"}, "MELK (human)": {"biological_target": "MELK (human) (UniProt Q14680)", "sequence (Q14680 whole entry, looked up)": "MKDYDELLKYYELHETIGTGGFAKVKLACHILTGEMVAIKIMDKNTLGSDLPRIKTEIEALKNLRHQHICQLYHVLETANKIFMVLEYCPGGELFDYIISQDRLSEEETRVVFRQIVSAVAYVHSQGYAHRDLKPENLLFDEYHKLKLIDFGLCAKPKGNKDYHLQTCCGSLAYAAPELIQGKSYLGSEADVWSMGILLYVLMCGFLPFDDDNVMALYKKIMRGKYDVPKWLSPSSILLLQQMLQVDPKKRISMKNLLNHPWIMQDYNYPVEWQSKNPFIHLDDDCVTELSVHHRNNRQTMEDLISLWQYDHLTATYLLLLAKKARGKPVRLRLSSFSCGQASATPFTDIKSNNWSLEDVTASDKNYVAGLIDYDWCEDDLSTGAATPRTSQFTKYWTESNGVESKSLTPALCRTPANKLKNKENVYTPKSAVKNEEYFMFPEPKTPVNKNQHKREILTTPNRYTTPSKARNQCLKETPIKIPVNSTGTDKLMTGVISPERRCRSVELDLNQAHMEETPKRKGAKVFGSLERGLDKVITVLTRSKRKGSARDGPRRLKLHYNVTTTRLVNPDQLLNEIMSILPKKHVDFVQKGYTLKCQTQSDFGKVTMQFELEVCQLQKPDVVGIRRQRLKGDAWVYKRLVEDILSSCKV"}, "BMPR2 (human)": {"biological_target": "BMPR2 (human) (UniProt Q13873)", "sequence (Q13873 whole entry, looked up)": "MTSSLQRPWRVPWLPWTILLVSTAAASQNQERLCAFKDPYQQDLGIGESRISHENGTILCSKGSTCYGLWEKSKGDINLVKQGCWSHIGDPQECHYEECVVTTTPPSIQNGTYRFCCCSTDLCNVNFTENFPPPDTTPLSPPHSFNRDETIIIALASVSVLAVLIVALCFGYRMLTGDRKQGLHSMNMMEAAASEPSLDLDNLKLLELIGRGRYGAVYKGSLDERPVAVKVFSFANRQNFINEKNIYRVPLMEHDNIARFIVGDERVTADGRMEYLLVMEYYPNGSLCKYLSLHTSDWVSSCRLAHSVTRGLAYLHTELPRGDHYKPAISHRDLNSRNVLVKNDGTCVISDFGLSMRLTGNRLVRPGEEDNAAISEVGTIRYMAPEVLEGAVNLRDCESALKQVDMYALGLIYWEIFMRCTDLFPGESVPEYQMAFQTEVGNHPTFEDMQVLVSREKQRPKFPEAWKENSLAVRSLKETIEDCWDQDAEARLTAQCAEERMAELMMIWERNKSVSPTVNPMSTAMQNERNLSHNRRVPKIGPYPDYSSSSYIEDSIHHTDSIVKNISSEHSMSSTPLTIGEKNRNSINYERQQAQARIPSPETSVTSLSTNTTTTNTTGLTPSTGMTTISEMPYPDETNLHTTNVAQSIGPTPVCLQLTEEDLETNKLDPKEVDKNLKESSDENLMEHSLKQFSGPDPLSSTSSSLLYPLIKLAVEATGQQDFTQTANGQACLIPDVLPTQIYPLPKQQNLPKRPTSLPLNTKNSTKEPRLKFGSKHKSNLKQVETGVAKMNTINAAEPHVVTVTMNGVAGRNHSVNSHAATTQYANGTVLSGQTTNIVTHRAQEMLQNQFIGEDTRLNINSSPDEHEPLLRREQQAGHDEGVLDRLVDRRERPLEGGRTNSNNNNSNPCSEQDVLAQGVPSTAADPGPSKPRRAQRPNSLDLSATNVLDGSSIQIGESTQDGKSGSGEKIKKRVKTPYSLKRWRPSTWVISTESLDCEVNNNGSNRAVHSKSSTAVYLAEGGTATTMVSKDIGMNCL"}, "ADCK4 (human)": {"biological_target": "ADCK4 (human) (UniProt Q96D53)"}, "IRAK3 (human)": {"biological_target": "IRAK3 (human) (UniProt Q9Y616)"}, "RET (human)": {"biological_target": "RET (human) (UniProt P07949)", "sequence (P07949 whole entry, looked up)": "as the sequence (P07949 whole entry V804M, looked up) above, with M804V counted along it"}, "SLK (human)": {"biological_target": "SLK (human) (UniProt Q9H2G2)"}, "PRKCE (human)": {"biological_target": "PRKCE (human) (UniProt Q02156)"}, "MARK4 (human)": {"biological_target": "MARK4 (human) (UniProt Q96L34)"}, "FRK (human)": {"biological_target": "FRK (human) (UniProt P42685)"}, "GSK3B (human)": {"biological_target": "GSK3B (human) (UniProt P49841)"}, "HIPK1 (human)": {"biological_target": "HIPK1 (human) (UniProt Q86Z02)"}, "CDC42BPG (human)": {"biological_target": "CDC42BPG (human) (UniProt Q6DT37)"}, "MAPK15 (human)": {"biological_target": "MAPK15 (human) (UniProt Q8TD08)"}, "[2]": {"tested_on": "PIK3CA (human), P42336 [C420R]"}, "PRKG2 (human)": {"biological_target": "PRKG2 (human) (UniProt Q13237)"}, "EPHA3 (human)": {"biological_target": "EPHA3 (human) (UniProt P29320)"}, "RIOK2 (human)": {"biological_target": "RIOK2 (human) (UniProt Q9BVS4)"}, "MAST1 (human)": {"biological_target": "MAST1 (human) (UniProt Q9Y2H9)"}, "[3]": {"biological_target": "JAK3 JH1 catalytic (human) (UniProt P52333)"}, "TNNI3K (human)": {"biological_target": "TNNI3K (human) (UniProt Q59H18)"}, "CLK4 (human)": {"biological_target": "CLK4 (human) (UniProt Q9HAZ1)"}, "CDK3 (human)": {"biological_target": "CDK3 (human) (UniProt Q00526)"}, "NEK9 (human)": {"biological_target": "NEK9 (human) (UniProt Q8TD19)"}, "AURKA (human)": {"biological_target": "AURKA (human) (UniProt O14965)", "sequence (O14965 whole entry, looked up)": "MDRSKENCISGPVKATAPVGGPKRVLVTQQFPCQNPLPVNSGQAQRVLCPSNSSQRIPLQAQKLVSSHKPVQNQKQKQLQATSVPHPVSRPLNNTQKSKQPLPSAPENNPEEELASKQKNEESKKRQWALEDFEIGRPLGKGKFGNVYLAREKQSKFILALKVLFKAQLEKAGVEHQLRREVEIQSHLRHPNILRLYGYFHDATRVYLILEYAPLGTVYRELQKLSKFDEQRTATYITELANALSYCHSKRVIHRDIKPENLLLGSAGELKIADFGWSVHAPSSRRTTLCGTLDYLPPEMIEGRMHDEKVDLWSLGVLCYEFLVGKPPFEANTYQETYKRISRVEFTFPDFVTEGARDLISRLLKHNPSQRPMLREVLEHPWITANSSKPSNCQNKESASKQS"}, "CDK4 CCND3 (human)": {"biological_target": "CDK4 CCND3 (human) (UniProt P11802+P30281)"}, "PRKD3 (human)": {"biological_target": "PRKD3 (human) (UniProt O94806)"}, "DAPK2 (human)": {"biological_target": "DAPK2 (human) (UniProt Q9UIK4)"}, "DAPK1 (human)": {"biological_target": "DAPK1 (human) (UniProt P53355)"}, "DYRK1A (human)": {"biological_target": "DYRK1A (human) (UniProt Q13627)"}, "[4]": {"tested_on": "FLT3 (human), P36888 [D835Y]"}, "CDC42BPA (human)": {"biological_target": "CDC42BPA (human) (UniProt Q5VT25)"}, "EPHB2 (human)": {"biological_target": "EPHB2 (human) (UniProt P29323)"}, "GAK (human)": {"biological_target": "GAK (human) (UniProt O14976)", "sequence (O14976 whole entry, looked up)": "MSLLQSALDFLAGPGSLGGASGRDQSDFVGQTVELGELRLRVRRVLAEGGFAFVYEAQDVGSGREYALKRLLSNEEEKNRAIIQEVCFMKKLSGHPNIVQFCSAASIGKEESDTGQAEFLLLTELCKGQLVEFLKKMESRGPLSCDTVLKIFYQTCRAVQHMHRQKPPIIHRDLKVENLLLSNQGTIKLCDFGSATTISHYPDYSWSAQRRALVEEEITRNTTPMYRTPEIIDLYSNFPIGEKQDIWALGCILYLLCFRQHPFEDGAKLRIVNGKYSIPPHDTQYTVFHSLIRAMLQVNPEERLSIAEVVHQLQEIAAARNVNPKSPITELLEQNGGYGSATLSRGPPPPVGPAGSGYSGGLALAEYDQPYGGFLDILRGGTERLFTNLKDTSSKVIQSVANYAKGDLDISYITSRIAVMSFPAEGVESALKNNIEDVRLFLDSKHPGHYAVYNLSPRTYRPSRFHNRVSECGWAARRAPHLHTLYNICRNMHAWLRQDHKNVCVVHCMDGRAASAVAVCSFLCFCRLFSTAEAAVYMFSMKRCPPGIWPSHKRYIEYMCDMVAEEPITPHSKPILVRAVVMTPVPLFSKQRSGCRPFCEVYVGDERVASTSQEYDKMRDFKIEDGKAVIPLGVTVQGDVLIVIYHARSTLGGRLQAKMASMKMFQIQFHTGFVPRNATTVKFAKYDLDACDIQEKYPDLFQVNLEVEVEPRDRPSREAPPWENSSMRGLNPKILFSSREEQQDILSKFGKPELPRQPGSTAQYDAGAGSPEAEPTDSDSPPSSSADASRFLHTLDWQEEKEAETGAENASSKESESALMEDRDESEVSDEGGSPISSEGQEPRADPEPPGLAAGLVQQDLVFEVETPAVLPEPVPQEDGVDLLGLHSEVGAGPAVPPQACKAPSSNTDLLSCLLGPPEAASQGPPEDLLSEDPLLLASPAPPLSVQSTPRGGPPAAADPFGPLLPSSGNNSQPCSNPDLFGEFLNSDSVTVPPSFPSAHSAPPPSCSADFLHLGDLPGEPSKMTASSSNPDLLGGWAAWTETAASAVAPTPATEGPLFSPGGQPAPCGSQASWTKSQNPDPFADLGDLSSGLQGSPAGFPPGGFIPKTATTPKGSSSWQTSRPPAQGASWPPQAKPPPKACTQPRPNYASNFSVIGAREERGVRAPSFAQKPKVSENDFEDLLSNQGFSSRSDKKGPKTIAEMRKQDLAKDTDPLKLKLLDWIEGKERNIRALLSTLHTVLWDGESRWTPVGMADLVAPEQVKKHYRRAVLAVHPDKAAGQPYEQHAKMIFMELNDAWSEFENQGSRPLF"}, "STK17B (human)": {"biological_target": "STK17B (human) (UniProt O94768)"}, "ERBB2 (human)": {"biological_target": "ERBB2 (human) (UniProt P04626)"}, "MAPKAPK2 (human)": {"biological_target": "MAPKAPK2 (human) (UniProt P49137)"}, "ADCK3 (human)": {"biological_target": "ADCK3 (human) (UniProt Q8NI60)"}}}
{"smiles": "Cn1c2ccccc2c2c3c(c4c5ccccc5n(CCC#N)c4c21)CNC3=O", "values": [{"measurement": "kinase still bound, per cent of control", "setting": "MAP4K3 (human)", "result": 6, "unit": "%"}, {"measurement": "kinase still bound, per cent of control", "setting": "FLT4 (human)", "result": 62, "unit": "%"}, {"measurement": "kinase still bound, per cent of control", "setting": "[1]", "result": 0, "unit": "%"}, {"measurement": "kinase still bound, per cent of control", "setting": "EPHA1 (human)", "result": 97, "unit": "%"}, {"measurement": "kinase still bound, per cent of control", "setting": "MST4 (human)", "result": 100, "unit": "%"}, {"measurement": "kinase still bound, per cent of control", "setting": "MELK (human)", "result": 22, "unit": "%"}, {"measurement": "kinase still bound, per cent of control", "setting": "BMPR2 (human)", "result": 100, "unit": "%"}, {"measurement": "kinase still bound, per cent of control", "setting": "ADCK4 (human)", "result": 93, "unit": "%"}, {"measurement": "kinase still bound, per cent of control", "setting": "IRAK3 (human)", "result": 12, "unit": "%"}, {"measurement": "kinase still bound, per cent of control", "setting": "RET (human)", "result": 0.6, "unit": "%"}, {"measurement": "kinase still bound, per cent of control", "setting": "SLK (human)", "result": 69, "unit": "%"}, {"measurement": "kinase still bound, per cent of control", "setting": "PRKCE (human)", "result": 66, "unit": "%"}, {"measurement": "kinase still bound, per cent of control", "setting": "MARK4 (human)", "result": 72, "unit": "%"}, {"measurement": "kinase still bound, per cent of control", "setting": "FRK (human)", "result": 84, "unit": "%"}, {"measurement": "kinase still bound, per cent of control", "setting": "GSK3B (human)", "result": 81, "unit": "%"}, {"measurement": "kinase still bound, per cent of control", "setting": "HIPK1 (human)", "result": 32, "unit": "%"}, {"measurement": "kinase still bound, per cent of control", "setting": "CDC42BPG (human)", "result": 100, "unit": "%"}, {"measurement": "kinase still bound, per cent of control", "setting": "MAPK15 (human)", "result": 0.45, "unit": "%"}, {"measurement": "kinase still bound, per cent of control", "setting": "[2]", "result": 46, "unit": "%"}, {"measurement": "kinase still bound, per cent of control", "setting": "PRKG2 (human)", "result": 11, "unit": "%"}, {"measurement": "kinase still bound, per cent of control", "setting": "EPHA3 (human)", "result": 53, "unit": "%"}, {"measurement": "kinase still bound, per cent of control", "setting": "RIOK2 (human)", "result": 64, "unit": "%"}, {"measurement": "kinase still bound, per cent of control", "setting": "MAST1 (human)", "result": 100, "unit": "%"}, {"measurement": "kinase still bound, per cent of control", "setting": "[3]", "result": 0, "unit": "%"}, {"measurement": "kinase still bound, per cent of control", "setting": "TNNI3K (human)", "result": 100, "unit": "%"}, {"measurement": "kinase still bound, per cent of control", "setting": "CLK4 (human)", "result": 6.1, "unit": "%"}, {"measurement": "kinase still bound, per cent of control", "setting": "CDK3 (human)", "result": 75, "unit": "%"}, {"measurement": "kinase still bound, per cent of control", "setting": "NEK9 (human)", "result": 100, "unit": "%"}, {"measurement": "kinase still bound, per cent of control", "setting": "AURKA (human)", "result": 74, "unit": "%"}, {"measurement": "kinase still bound, per cent of control", "setting": "CDK4 CCND3 (human)", "result": 42, "unit": "%"}, {"measurement": "kinase still bound, per cent of control", "setting": "PRKD3 (human)", "result": 2.8, "unit": "%"}, {"measurement": "kinase still bound, per cent of control", "setting": "DAPK2 (human)", "result": 61, "unit": "%"}, {"measurement": "kinase still bound, per cent of control", "setting": "DAPK1 (human)", "result": 78, "unit": "%"}, {"measurement": "kinase still bound, per cent of control", "setting": "DYRK1A (human)", "result": 6.4, "unit": "%"}, {"measurement": "kinase still bound, per cent of control", "setting": "[4]", "result": 0, "unit": "%"}, {"measurement": "kinase still bound, per cent of control", "setting": "CDC42BPA (human)", "result": 94, "unit": "%"}, {"measurement": "kinase still bound, per cent of control", "setting": "EPHB2 (human)", "result": 100, "unit": "%"}, {"measurement": "kinase still bound, per cent of control", "setting": "GAK (human)", "result": 2, "unit": "%"}, {"measurement": "kinase still bound, per cent of control", "setting": "STK17B (human)", "result": 100, "unit": "%"}, {"measurement": "kinase still bound, per cent of control", "setting": "ERBB2 (human)", "result": 87, "unit": "%"}, {"measurement": "kinase still bound, per cent of control", "setting": "MAPKAPK2 (human)", "result": 100, "unit": "%"}, {"measurement": "kinase still bound, per cent of control", "setting": "ADCK3 (human)", "result": 100, "unit": "%"}]}
